Reference: patent publication US6413944B1 (Regents of the University of Michigan, priority 1991, dated 2002)
Where two headings read alike, the source gives them in different places.

How the values were obtained:
RT = RT (Human immunodeficiency virus type 1 group M subtype B, UniProt P04585); test: RT inhibition assays; format: biochemical; settings: in words
HIV = format: cell-based; settings: persistently infected monocyte/macrophages and T-cells; reverse transcriptase, p24 core antigen, infectious virus; in words
HIV-1 = test: microbe, parasite or virus in culture; settings: for IC50: Human immunodeficiency virus 1, CEM-SS
Protocol: CEM-SS cells were seeded at 10,000 cells per well into 96-cell plates precoated with poly L-lysine. The cell monolayers were infected with about 50 plaque forming units of HIV-1. After 1 hr for virus attachment, the cell monolayers were overlaid with growth medium with or without added test compound. After 3 days incubation at 37° C. in a CO2 incubator, the cell monolayers received a second overlay of growth medium with or without added test compound and incubation at 37° C. continued for a total of 5 days. HIV-1 plaques were counted, the counts entered into a computer and a IC50 for HIV-1 plaque formation was determined. Each experiment was replicated at least once.
Dose-response relationships were used to compare drug effects. These were constructed by linearly regressing the percent inhibition of parameters derived in the preceding sections against log drug concentrations. The 50% inhibitory (I50) concentrations were calculated from the regression lines.

[1] = Cytotoxicity by uptake of [3H]thymidine in uninfected CEM-SS cells; format: cell-based; settings: human; uptake of [3H]thymidine in uninfected CEM-SS cells (Table I); read-out: 50% Inhibitory Concentration, Cytotoxicity
Protocol: CEM-SS cells were seeded in 96 well plates (10,000 cells per well) in growth medium containing various concentrations of test compound and incubated at 37° C. in a CO2 incubator. After 36 hours incubation the cells were pulse-labeled for 4 hours at 37° C. with 1 μCi ^3H-TdR uptake into cellular DNA. Controls consisted of CEM-SS cells not treated with drug and pulse-labeled for 4 hours with [^3H]thymidine (positive control) or harvested immediately after addition of [^3H]thymidine (negative control). The harvested samples were counted by scintillation spectrometry to obtain a mean±one S.D. for each set of triplicate wells. The data were entered into a computer and used to determine a IC50 for cell cytotoxicity. Each experiment was replicated at least once.

HCMV = HCMV plaque (focus) reduction assay in HFF cells; format: cell-based, human cytomegalovirus; settings: in words

Structure (SMILES)	inhibition of RT enzyme (RT)	activity in reducing HIV production in persistently infected cells (HIV)	IC50 (HIV-1; read-out: 50% Inhibitory Concentration, Antiviral Activity: HIV, syncytial assay in CEM-SS cells (Table I))	IC50 (HIV-1; read-out: Syncytial Assay 50% Inhibitory Concentration, HIV-1G-691 (post AZT therapy), clinical isolate resistant to AZT)	IC50 (HIV-1; read-out: Syncytial Assay 50% Inhibitory Concentration, HIV-1G-762 (pre AZT therapy), clinical isolate sensitive to AZT)	IC50 (HIV-1; read-out: Syncytial Assay 50% Inhibitory Concentration, HIV-1G-910 (post AZT therapy))	IC50 (HIV-1; read-out: Syncytial Assay 50% Inhibitory Concentration, HIV-1H-1112 (pre AZT therapy))	IC50 (HIV-1; read-out: Syncytial Assay 50% Inhibitory Concentration, HIV-1IIIB (Table III))	Differential Selectivity (HIV) (HIV-1; cytotoxicity in CEM-SS cells versus HIV syncytial assay)	IC50 at 36 h [1]	activity against HCMV (HCMV)
CN1N=C(N)c2cn(C3OC(COP(=O)(O)OP(=O)(O)OP(=O)(O)O)C(O)C3O)c3ncnc1c23 (stereo not drawn) [TCN-triphosphate]	do not act via inhibition of this enzyme	–	–	–	–	–	–	–	–	–	–
Nc1ccn([C@H]2CC[C@@H](CO)O2)c(=O)n1 [ddC, dideoxycytidine]	–	not active	–	–	–	–	–	–	–	–	–
Cc1cn([C@H]2C[C@H](N=[N+]=[N-])[C@@H](CO)O2)c(=O)[nH]c1=O [AZT, zidovudine]	–	not active	2.7 nM	210 nM	0.2 nM	7200 nM	< 1 nM	2 nM	1852	5000 nM	inactive
